Laboratory results reported in patent US12338220B2, “Antiviral pyrazolopiridinone compounds” (Novartis AG, priority 2019, dated 2025).
Like-named read-outs stand apart in the source and are kept apart here.

Legend:
CMV = experiment: microbe, parasite or virus in culture; assay type: cell-based
[1] = test system: EBV (SNU-719 cells latently infected); experiment: EBV qPCR assay; settings: human gammaherpesvirus 4, 72 h, read-out: Cellular activity against EBV (EC50)
VZV Ellen strain = experiment: VZV qPCR assay; settings: Human alphaherpesvirus 3, MRC5, 48 h, read-out: Cellular activity against VZV (EC50)
[2] = test system: KOS strain of HSV-1 virus; experiment: HSV-1 qPCR assay; settings: Human alphaherpesvirus 1, 24 h
CMV-polymerase = CMV-polymerase (Human cytomegalovirus (strain AD169) (HHV-5) (Human herpesvirus 5), UniProt P08546); experiment: biochemical
HSV-polymerase = HSV-polymerase (Human herpesvirus 1 (strain 17) (HHV-1) (Human herpes simplex virus 1), UniProt P04293); experiment: biochemical
[3] = Human betaherpesvirus 5, read-out: Cellular activity against CMV (EC50), Table 18
[4] = read-out: Cellular activity against HSV-1 (EC50), NN-NHDF cells, MOI 0.01, 24 hrs, qPCR
[5] = read-out: CMV-polymerase Biochemical IC50
[6] = Human betaherpesvirus 5, 72 h, read-out: CMV-Luc Cellular EC50, NN-NHDF cells, MOI 1, 72 hrs
[7] = read-out: Cellular activity against HSV-1 (EC50)

| SMILES | EC50 (CMV; [3]) [nM] | EC50 [1] [nM] | EC50 (VZV Ellen strain) [nM] | EC50 [2, 4] [nM] | IC50 (CMV-polymerase; [5]) [nM] | EC50 (CMV; [6]) [nM] | EC50 [2, 7] [nM] | IC50 (HSV-polymerase) [nM] | IC50 (CMV-polymerase; CMV-polymerase Biochemical IC50) [nM] |
| --- | --- | --- | --- | --- | --- | --- | --- | --- | --- |
| Cn1nc(C(=O)NCc2ccc(C#N)cc2)c2c1C(=O)N(CC1(S(=O)(=O)C(C)(C)[C@H](O)CO)CC1)CC2 [Example 193, (R)-N-(4-Cyanobenzyl)-6-((1-((3,4-dihydroxy-2-methylbutan-2-yl)sulfonyl)cyclopropyl)methyl)-1-methyl-7-oxo-4,5,6,7-tetrahydro-1H-pyrazolo[3,4-c]pyridine-3-carboxamide] | 26 | 8 | 34 | 58 | 1 |  |  |  |  |
| CC(C)(O)Cn1nc(C(=O)NCc2ccc(C#N)cc2)c2c1C(=O)N(CC1(S(=O)(=O)C3(CO)CC3)CC1)CC2 [Example 234, N-(4-Cyanobenzyl)-1-(2-hydroxy-2-methylpropyl)-6-((1-((1-(hydroxymethyl)cyclopropyl)sulfonyl)cyclopropyl)methyl)-7-oxo-4,5,6,7-tetrahydro-1H-pyrazolo[3,4-c]pyridine-3-carboxamide] | 49 | 11 | 115 | 83 | 1 | 49 |  |  |  |
| Cn1nc(C(=O)NCc2ccc(C#N)cc2)c2c1C(=O)N(CC1(S(=O)(=O)C3CC3)CC1)CC2 [Example 3, N-(4-cyanobenzyl)-6-((1-(cyclopropylsulfonyl)cyclopropyl)methyl)-1-methyl-7-oxo-4,5,6,7-tetrahydro-1H-pyrazolo[3,4-c]pyridine-3-carboxamide] | 39 |  | 11 |  | 2 | 39 | 33 |  |  |
| Cn1nc(C(=O)NCc2ccc(Cl)cc2)c2c1C(=O)N(CC1(S(=O)(=O)C3CC3)CC1)CC2 [Example 4, N-(4-Chlorobenzyl)-6-((1-(cyclopropylsulfonyl)cyclopropyl)methyl)-1-methyl-7-oxo-4,5,6,7-tetrahydro-1H-pyrazolo[3,4-c]pyridine-3-carboxamide] | 23 |  | 8 | 64 | 2 | 23 |  |  |  |
| Cn1nc(C(=O)NCc2ccc(C#N)cc2)c2c1C(=O)N(CC1(S(=O)(=O)C(C)(CO)CO)CC1)CC2 [Example 176, N-(4-Cyanobenzyl)-6-((1-((1,3-dihydroxy-2-methylpropan-2-yl)sulfonyl)cyclopropyl)methyl)-1-methyl-7-oxo-4,5,6,7-tetrahydro-1H-pyrazolo[3,4-c]pyridine-3-carboxamide] | 52 | 14 | 74 | 95 | 2 | 52 |  | 39 |  |
| N#Cc1ccc(CNC(=O)c2nn(CCO)c3c2CCN(CC2(S(=O)(=O)C4CC4)CC2)C3=O)cc1 [Example 216, N-(4-cyanobenzyl)-6-((1-(cyclopropylsulfonyl)cyclopropyl)methyl)-1-(2-hydroxyethyl)-7-oxo-4,5,6,7-tetrahydro-1H-pyrazolo[3,4-c]pyridine-3-carboxamide] | 67 | 28 | 109 |  | 2 | 67 | 112 |  |  |
| Cn1nc(C(=O)NCc2ccc(Cl)cc2)c2c1C(=O)N(CC1(S(=O)(=O)C(C)(CO)CO)CC1)CC2 [Example 175, N-(4-chlorobenzyl)-6-((1-((1,3-dihydroxy-2-methylpropan-2-yl)sulfonyl)cyclopropyl)methyl)-1-methyl-7-oxo-4,5,6,7-tetrahydro-1H-pyrazolo[3,4-c]pyridine-3-carboxamide] | 26 | 8 | 34 | 58 |  | 26 |  |  | 3 |
| Cn1nc(C(=O)NCc2ccc(C#N)cc2)c2c1C(=O)N(CC1(S(=O)(=O)C(C)(C)[C@H](O)CN)CC1)CC2 [Example 198, (R)-6-((1-((4-amino-3-hydroxy-2-methylbutan-2-yl)sulfonyl)cyclopropyl)methyl)-N-(4-cyanobenzyl)-1-methyl-7-oxo-4,5,6,7-tetrahydro-1H-pyrazolo[3,4-c]pyridine-3-carboxamide] | 22 | 4 | 39 |  |  | 18 | 50 |  |  |
